# Measurements taken from publication PMC6010545, “Identification of a Novel Polyamine Scaffold With Potent Efflux Pump Inhibition Activity Toward Multi-Drug Resistant Bacterial Pathogens” (Frontiers in Microbiology, 2018).
# pEC50: −log10 of the molar value. “And” between values parts separate entries of the source, which are not always exact repeats. Equal values may be shown once. “Also recorded” adds a separate entry of the source. Read-outs that look alike come from different tables or passages of the source. Residues, ends and D or L forms follow the SMILES beside them. No end group written: not given here. *: point of attachment. βNA = c1ccc2cc(N*)ccc2c1
# Assays:
# [1] = tested on: tetracycline-resistant P. aeruginosa isolate 1419; experiment: Checkerboard potentiation assay with tetracycline; type: cell-based, Pseudomonas aeruginosa; conditions: for EC50: 20 h, inhibitor alone, 25 μg mL^-1 highest concentration tested, read-out: EPI* (inhibitory concentration of efflux pump inhibitor alone)
# Description: (§1) Scaffold ranking library samples and individual polyamines were screened using checkerboard inhibitory assays to assess the potentiation of tetracycline and chloramphenicol. The test utilized a 96-well plate microtiter assay where the concentration of the scaffold or individual polyamine was decreased from 25 to 0.8 μg mL^-1 (average molarity of mixture samples 65 to 4 μM) along the rows, and the concentration of tetracycline or chloramphenicol was increased from 0.4 to 100 μM across the columns. […] However, with the known antibiotics, we report EC90 values in μM, which more accurately describes purified compounds. Plates were incubated statically at 37°C for 20 h, and the optical density (OD600) was determined using a Synergy 2 plate reader (BioTek). Potentiation modeling (detailed below) was performed to determine fold change in the 50 and 90% effective concentration of tetracycline or chloramphenicol.
# (§2) Potentiation was quantified using a mathematical model developed by our group to assess the ability of library samples and individual compounds to effectively enhance the activity of tetracycline or chloramphenicol ([Hoel, 1987]). […] In this way, only libraries and compounds that potentiated tetracycline or chloramphenicol activity were pursued. The model is based on the following equation for modeling the percentage activity of a mixture of two agents with independent action ([Hoel, 1987]):
# %Antibiotic & Comp(X1,X2)=%Antibiotic(X1)+%Comp(X2)−%Antibiotic(X1)⋅%Comp(X2)
# Here, x1 and x2 are the concentrations of antibiotic (tetracycline or chloramphenicol) and library/compound (Comp) tested, respectively. This equation can be rearranged to model the effective percent activity (EC) of the antibiotic alone, after accounting for compound activity:
# Eff%Antibiotic(X1)=%Antibiotic & Compound(X1,X2)−%Compound(X2)/1−%Compound(X2)
# Thus, the model-adjusted checkerboards show the antibiotic activity post-potentiation, and from that one can determine the true change in Mic.
# P. aeruginosa (1419) [2] = experiment: Bacterial membrane depolarization (DiSC3 dye); type: cell-based; conditions: 25 μg mL^-1
# Description: To determine the level of membrane depolarization by polyamine compounds a 3,3′-dipropylthiadicarbocyanine Iodide (DiSC3) fluorescence dye was used. Exponentially growing cultures were prepared as described above, before being harvested by centrifugation. Cells were next washed in buffer a [5 mM Hepes (pH 7.2), 5 mM glucose] and resuspended to an OD600 of 0.2 in the same buffer containing 100 mM KCL and 2 μM DiSC3. Samples were allowed to equilibrate for 15 min at room temperature to ensure uptake and quenching of the dye in bacterial membranes. Cells were aliquoted into 96-well plates and polyamines were added alongside the known efflux inhibitor PAβN (all at 25 μg mL^-1). Nisin (25 μg mL^-1) was used as a positive control to display depolarization effects. A Biotek plate reader was used to monitor fluorescence of wells, with a 622 nm excitation and 670 nm emission. For graphical representation, the maximum relative fluorescence at 2 min was used for comparison of lead agents to controls.
# P. aeruginosa (1419) [3] = experiment: Bactericidal assessment in combination with tetracycline; conditions: Pseudomonas aeruginosa, read-out: percent recovery (bacterial viability)
# Description: Lead agents were screened for bactericidal activity as described by us previously ([Van Horn et al., 2014]; [Fleeman et al., 2015]), with the following modifications. Varying concentrations of tetracycline (0, 12, 25, and 50 μM) were used in combination with the MPC (25 μM) of lead agents 247, 250, 266, 271, and 314 against P. aeruginosa. […] Biofilm experiments were performed similar to those described by us previously ([Fleeman et al., 2015]; [von Salm et al., 2016]), with the following modifications. Polyamine agents 247, 250, 266, 271, and 314 were added at MPC into biofilm containing wells alongside varying concentrations of tetracycline (0, 12, 25, and 50 μM). Cellular viability was determined by serial dilution after a 20-h incubation at 37°C. Values were converted to percent recovery using no treatment controls. All data was generated from three biological replicates and two technical replicates.
# MTT cytotoxicity assay = type: cell-based; conditions: human, 25 μg mL^-1, 48 h, read-out: percent recovery (cell viability)
# Description: To assess toxicity of polyamine compounds we used HepG2 human liver carcinoma cells and Hek293T human embryonic kidney epithelial cells. The viability of cell lines was determined using a 3-(4,5-dimethylthiazol-2-yl)-2,5-diphenyltetrazolium bromide (MTT) molecular probe as previously described by our group ([Fleeman et al., 2015]). Briefly, 247, 266, 271 (Hek293T), or 250, 271, 314 (HepG2), alongside control efflux pump inhibitor PaβN, were diluted in 10% DMF from 25 μg mL^-1 to 3 μg mL^-1 using twofold dilutions, before being added to cells in DMEM with 10% FBS and 1% penicillin/streptomycin. Cells were then incubated for 48 h at 37°C with 5% CO2. Following this, viability was assessed by the addition of MTT and measuring the OD570 in a Biotek plate reader. Percent recovery was determined compared to no drug controls.
# MRSA (USA300) = experiment: Potentiation of chloramphenicol, MRSA USA300 and norA mutant; type: cell-based, S. aureus
# Description: as §1
# as §2, with “The model is based on the following equation for modeling the percentage activity of a mixture of two agents with independent action ([Hoel, 1987]):” left out
# P. aeruginosa = experiment: Minimum inhibitory concentrations of antibiotics, P. aeruginosa isolates; type: cell-based; conditions: Pseudomonas aeruginosa, read-out: minimal inhibitory concentration
# Description: (§3) The bacterial strains used in this study are multi-drug resistant clinical isolates that have previously been described (Supplementary Table S1; [Fleeman et al., 2015]). Organisms were grown in tryptic soy broth (TSB) for overnight cultures and cation adjusted Mueller Hinton broth (CA-MH II) was used for experimental procedures. All incubations were performed at 37°C. The minimum inhibitory concentrations (MICS) for all antibiotics tested against these organisms are shown in Supplementary Table S1.
# A. baumannii 1643 = experiment: Minimum inhibitory concentrations of antibiotics, A. baumannii isolate; type: cell-based; conditions: Acinetobacter baumannii; strain 1643; read-out: minimal inhibitory concentration
# Description: as §3
# S. aureus = experiment: microbe, parasite or virus in culture; type: cell-based; conditions: Staphylococcus aureus
# Description: as §3
# [4] = tested on: P. aeruginosa proficient (1419) and deficient (1418) strain; experiment: Aztreonam combination testing in efflux proficient and deficient strains; type: cell-based; conditions: strain 1419 (efflux proficient); polyamine 12.5 μg mL^-1, ½ X MIC aztreonam
# Description: FIGURE 6 Confirming efflux pump inhibition by polyamines using efflux deficient strains. (A) A P. aeruginosa proficient (1419) and deficient (1418) strain were subjected to combination testing of the polyamines at 12.5 μg mL^-1 and ½ X MIC of aztreonam. Fold potentiation was calculated by dividing the CFU mL^-1 for aztreonam only by the CFU mL^-1 of the combined treatment groups. (B) Lead polyamine 247 was assessed for its ability to potentiate the activity of chloramphenicol toward S. aureus strain United States 300 and its norA mutant. Shown is the potentiated chloramphenicol EC90 calculated as described in A. Error bars are shown ± SEM.
# P. aeruginosa (1419) [5] = experiment: Checkerboard potentiation assay with chloramphenicol; type: cell-based; conditions: increasing polyamine concentration
# Description: as §1
# as §2, with “The model is based on the following equation for modeling the percentage activity of a mixture of two agents with independent action ([Hoel, 1987]):” left out
# [6] = EC50 tetracycline without EPI / with EPI
# [7] = EC90 tetracycline without EPI / with EPI
# [8] = Hek293T human embryonic kidney epithelial cells, vs solvent only controls
# [9] = HepG2 human liver carcinoma cells
# [10] = 25 µg ml-1 TPI, EC50 tetracycline no TPI / with TPI
# [11] = 25 µg ml-1 TPI, EC90 tetracycline no TPI / with TPI
molecule,measurement,setting,value
"NC(N)=NCCC[C@H](NC(=O)[C@@H](N)Cc1ccccc1)C(=O)Nc1ccc2ccccc2c1 [PAβN, phenylalanine arginine beta naphthalimide, reference compound] (H-Phe-Arg-βNA)",FP* (fold potentiation of tetracycline EC50),[1]; [6],65.5 fold
same,FP (fold potentiation of tetracycline EC90),[1]; EC90 tetracycline no TPL / with TPL at 25 µg ml-1,8.01 fold
same,FP# (fold potentiation of tetracycline EC90),[1]; [7],8 fold
same,EC50,[1]; Pseudomonas aeruginosa,> 25 µg/mL
same,EC90,"[1]; Pseudomonas aeruginosa, Torrey Pines Library alone, 25 µg ml-1 highest tested, read-out: TPL (inhibitory concentration of library alone, EC90)",> 25 µg/mL
same,membrane depolarization (DiSC3 fluorescence change),P. aeruginosa (1419) [2],strong increase in fluorescence
same,viability at 25 µg/mL,P. aeruginosa (1419) [3],76%
"N=C(N)NCCC[C@H](NC(=O)[C@@H](N)Cc1ccccc1)C(=O)Nc1ccc2ccccc2c1 [PAβN, phenylalanine arginine beta naphthalimide, reference compound] (H-Phe-Arg-βNA)","recovery at 48 h, 25 μg mL^-1",MTT cytotoxicity assay; [8],63%
same,"recovery at 48 h, 25 μg mL^-1",MTT cytotoxicity assay; [9],68%
CNCCCC[C@@H](CN)NC[C@H](Cc1ccccc1)NCCc1ccccc1 [compound 247],FP* (fold potentiation of tetracycline EC50),[1]; [10],5 fold
same,FP# (fold potentiation of tetracycline EC90),[1]; [11],7.5 fold
same,EC50,[1]; Pseudomonas aeruginosa,> 25 µg/mL
same,TPI (inhibitory concentration of polyamine alone),[1]; 25 µg ml-1 highest tested,> 25 µg/mL
same,potentiation of chloramphenicol,MRSA (USA300); norA knockout,little potentiation
same,potentiation of chloramphenicol,MRSA (USA300); wild-type USA300,marked potentiation of antibiotic activity in a dose responsive manner; also recorded: strongly potentiate chloramphenicol activity
same,"recovery at 48 h, 25 μg mL^-1",MTT cytotoxicity assay; [8],84%
NCCC[C@@H](CN[C@H](CN)Cc1ccccc1)NCCc1ccccc1 [compound 314],FP* (fold potentiation of tetracycline EC50),[1]; [10],5 fold
same,FP# (fold potentiation of tetracycline EC90),[1]; [11],7.5 fold
same,FP* (fold potentiation of tetracycline EC50),[1]; [6],5 fold and 5.0 fold
same,FP# (fold potentiation of tetracycline EC90),[1]; [7],7.5 fold
same,EC50,[1]; Pseudomonas aeruginosa,> 25 µg/mL
same,TPI (inhibitory concentration of polyamine alone),[1]; 25 µg ml-1 highest tested,> 25 µg/mL
same,"recovery at 48 h, 25 μg mL^-1",MTT cytotoxicity assay; [9],77%
"COC(=O)[C@H]1[C@H]2C[C@@H]3c4[nH]c5cc(OC)ccc5c4CCN3C[C@H]2C[C@@H](OC(=O)c2cc(OC)c(OC)c(OC)c2)[C@@H]1OC [Reserpine, reserpine, reference compound]",FP* (fold potentiation of tetracycline EC50),[1]; [6],11.2 fold
same,FP# (fold potentiation of tetracycline EC90),[1]; [7],1 fold
same,EC50,[1]; Pseudomonas aeruginosa,> 25 µg/mL
CN(C)[C@@H]1C(O)=C(C(N)=O)C(=O)[C@@]2(O)C(O)=C3C(=O)c4c(O)cccc4[C@@](C)(O)[C@H]3C[C@@H]12 [tetracycline],pEC50,"[1]; Pseudomonas aeruginosa, no polyamine, average across replicates, read-out: tetracycline alone EC50",4.32
same,EC90,"[1]; Pseudomonas aeruginosa, no library or polyamine, average across replicates, read-out: tetracycline alone EC90",82.5 µM
same,viability at 12 µM,P. aeruginosa (1419) [3],53%
same,viability at 25 µM,P. aeruginosa (1419) [3],35%
same,viability at 50 µM,P. aeruginosa (1419) [3],1%
same,MIC,P. aeruginosa; strain 1418,200 µM
same,MIC,P. aeruginosa; strain 1419,100 µM
O=C(N[C@H](CO)[C@H](O)c1ccc([N+](=O)[O-])cc1)C(Cl)Cl [chloramphenicol],membrane depolarization (DiSC3 fluorescence change),P. aeruginosa (1419) [2],decreased in florescence
same,MIC,A. baumannii 1643,85 µM
same,MIC,P. aeruginosa; strain 1418,> 619 µM
same,MIC,P. aeruginosa; strain 1419,150 µM
same,MIC,"S. aureus; USA100, strain 635 (USA100), read-out: minimal inhibitory concentration",110 µM
same,MIC,"S. aureus; USA300, read-out: minimal inhibitory concentration, strain JE-2 norA knockout (USA300)",100 µM
same,MIC,"S. aureus; USA300, strain JE-2 parental (USA300), read-out: minimal inhibitory concentration",110 µM
C[C@H]1[C@H](NC(=O)/C(=N\OC(C)(C)C(=O)O)c2csc(N)n2)C(=O)N1S(=O)(=O)O [aztreonam],MIC,P. aeruginosa; strain 1418,6 µM
same,MIC,P. aeruginosa; strain 1419,1 µM
C[C@H]1COc2c(N3CCN(C)CC3)c(F)cc3c(=O)c(C(=O)O)cn1c23 [levofloxacin],MIC,A. baumannii 1643,100 µM
NCC[C@@H](CN)NC[C@H](Cc1ccccc1)NCCc1ccccc1 [compound 250],FP* (fold potentiation of tetracycline EC50),[1]; [10],7 fold
same,FP# (fold potentiation of tetracycline EC90),[1]; [11],7.8 fold
same,FP* (fold potentiation of tetracycline EC50),[1]; [6],7.0 fold
same,FP# (fold potentiation of tetracycline EC90),[1]; [7],7.8 fold
same,EC50,[1]; Pseudomonas aeruginosa,> 25 µg/mL
same,TPI (inhibitory concentration of polyamine alone),[1]; 25 µg ml-1 highest tested,> 25 µg/mL
same,potentiation of aztreonam,[4],best potentiators of aztreonam
same,"recovery at 48 h, 25 μg mL^-1",MTT cytotoxicity assay; [9],80%
"nisin (ITSISLCTPGCKTGALMGCNMKTATCHCSIHVSK; cysteine pairing not given here; also: lantibiotic nisin-A; UniProt P13068 24-57, looked up) [positive control for membrane depolarization]",membrane depolarization (DiSC3 fluorescence change),P. aeruginosa (1419) [2],strong increase in fluorescence
CNCCCC[C@H](CN)NC[C@H](Cc1ccccc1)NCCc1ccccc1 [compound 266],FP* (fold potentiation of tetracycline EC50),[1]; [10],6.8 fold
same,FP# (fold potentiation of tetracycline EC90),[1]; [11],5.8 fold
same,FP* (fold potentiation of tetracycline EC50),[1]; [6],6.8 fold
same,FP# (fold potentiation of tetracycline EC90),[1]; [7],5.8 fold
same,EC50,[1]; Pseudomonas aeruginosa,> 25 µg/mL
same,TPI (inhibitory concentration of polyamine alone),[1]; 25 µg ml-1 highest tested,> 25 µg/mL
same,"recovery at 48 h, 25 μg mL^-1",MTT cytotoxicity assay; [8],72%
same,potentiation of chloramphenicol EC90,P. aeruginosa (1419) [5],highest potentiation values
